From patent publication US8722578B2, “Spiroheterocyclic pyrrolidinedione herbicidal compositions” (Syngenta Participations AG, priority 2008, dated 2014)

Tests used:
[1] = system: Alopecurus myosuroides (ALOMY); experiment: Example B pre-emergence herbicidal activity, glasshouse pot test; type: in vivo; conditions: 312 h, first table (headed Post-Emergence, taken as pre-emergence), rate 1000 g/ha, evaluated after 13 days, read-out: ALOMY activity (100=total damage to plant; 0=no damage to plant)
Description: (§1) Seeds of a variety of test species are sown in standard soil in pots. After cultivation for one day (pre-emergence) or after 8 days cultivation (post-emergence) under controlled conditions in a glasshouse (at 24/16° C., day/night; 14 hours light; 65% humidity), the plants are sprayed with an aqueous spray solution derived from the formulation of the technical active ingredient in acetone/water (50:50) solution containing 0.5% Tween 20 (polyoxyethelyene sorbitan monolaurate, CAS RN 9005-64-5). The test plants are then grown in a glasshouse under controlled conditions in a glasshouse (at 24/16° C., day/night; 14 hours light; 65% humidity) and watered twice daily. After 13 days for pre and post-emergence, the test is evaluated (100=total damage to plant; 0=no damage to plant). Test Plants: Setaria faberi (SETFA), Alopecurus myosuroides (ALOMY), Echinochloa crus-galli (ECHCG), Avena fatua (AVEFA)

Avena fatua (AVEFA) [2] = experiment: as above; type: in vivo; conditions: 312 h, first table (headed Post-Emergence, taken as pre-emergence), rate 1000 g/ha, evaluated after 13 days, read-out: AVEFA activity (100=total damage to plant; 0=no damage to plant)
Description: as §1

[3] = system: Echinochloa crus-galli (ECHCG); experiment: as above; type: in vivo; conditions: 312 h, first table (headed Post-Emergence, taken as pre-emergence), rate 1000 g/ha, evaluated after 13 days, read-out: ECHCG activity (100=total damage to plant; 0=no damage to plant)
Description: as §1

Setaria faberi (SETFA) [4] = experiment: as above; type: in vivo; conditions: 312 h, first table (headed Post-Emergence, taken as pre-emergence), rate 1000 g/ha, evaluated after 13 days, read-out: SETFA activity (100=total damage to plant; 0=no damage to plant)
Description: as §1

[5] = system: Alopecurus myosuroides (ALOMY); experiment: Example B post-emergence herbicidal activity, glasshouse pot test; type: in vivo; conditions: 312 h, evaluated after 13 days, read-out: ALOMY post-emergence activity (100=total damage to plant; 0=no damage to plant); for pest or weed control at 1000 g/ha: rate 1000 g/ha; for pest or weed control at 250 g/ha: rate 250 g/ha
Description: as §1

Avena fatua (AVEFA) [6] = experiment: as above; type: in vivo; conditions: 312 h, evaluated after 13 days, read-out: AVEFA post-emergence activity (100=total damage to plant; 0=no damage to plant); for pest or weed control at 1000 g/ha: rate 1000 g/ha; for pest or weed control at 250 g/ha: rate 250 g/ha
Description: as §1

[7] = system: Echinochloa crus-galli (ECHCG); experiment: as above; type: in vivo; conditions: 312 h, evaluated after 13 days, read-out: ECHCG post-emergence activity (100=total damage to plant; 0=no damage to plant); for pest or weed control at 1000 g/ha: rate 1000 g/ha; for pest or weed control at 250 g/ha: rate 250 g/ha
Description: as §1

Setaria faberi (SETFA) [8] = experiment: as above; type: in vivo; conditions: 312 h, evaluated after 13 days, read-out: SETFA post-emergence activity (100=total damage to plant; 0=no damage to plant); for pest or weed control at 1000 g/ha: rate 1000 g/ha; for pest or weed control at 250 g/ha: rate 250 g/ha
Description: as §1

SMILES | pest or weed control at 1000 g/ha [1] | pest or weed control at 1000 g/ha (Avena fatua (AVEFA) [2]) | pest or weed control at 1000 g/ha [3] | pest or weed control at 1000 g/ha (Setaria faberi (SETFA) [4]) | pest or weed control at 1000 g/ha [5] | pest or weed control at 1000 g/ha (Avena fatua (AVEFA) [6]) | pest or weed control at 1000 g/ha [7] | pest or weed control at 1000 g/ha (Setaria faberi (SETFA) [8]) | melting point | pest or weed control at 250 g/ha [5] | pest or weed control at 250 g/ha (Avena fatua (AVEFA) [6]) | pest or weed control at 250 g/ha [7] | pest or weed control at 250 g/ha (Setaria faberi (SETFA) [8])
CCOC(=O)OC1=C(c2c(C)cc(C)cc2C)C(=O)NC12CCN(OCC)CC2 [Compound P22] | 90% | 90% | 100% | 90% | 90% | 60% | 100% | 70% | 174 to 175 °C |  |  |  | 
CCON1CCC2(CC1)NC(=O)C(c1c(C)cc(C)cc1C)=C2OC(=O)C(C)(C)C [Compound P25, 2,2-dimethyl-propionic acid 8-ethoxy-2-oxo-3-(2,4,6-trimethyl-phenyl)-1,8-diaza-spiro[4.5]dec-3-en-4-yl ester] | 60% | 0% | 80% | 60% | 50% | 0% | 40% | 0% |  |  |  |  | 
COc1ccc(COC2=C(c3ccc(Cl)cc3Cl)C(=O)NC23CCN(OC)CC3)cc1 [Compound P32] |  |  |  |  | 70% | 60% | 80% | 90% | 111 to 113 °C |  |  |  | 
CON1CCC2(CC1)NC(=O)C(c1cc(C)ccc1C)=C2OC(=O)C(C)C [Compound P34] | 30% | 40% | 20% | 20% | 10% | 0% | 40% | 60% | 201 to 203 °C |  |  |  | 
CON1CCC2(CC1)NC(=O)C(c1ccc(Cl)cc1Cl)=C2OC(=O)N(C)CCC#N [Compound P39] | 0% | 0% | 30% | 60% | 10% | 0% | 40% | 50% | 171 to 172 °C |  |  |  | 
C=CCOC(=O)OC1=C(c2c(Cl)cccc2Cl)C(=O)NC12CCN(OC)CC2 [Compound P44] | 20% | 10% | 30% | 30% | 50% | 0% | 0% | 50% | 203 to 205 °C |  |  |  | 
C=CCOC(=O)OC1=C(c2c(C)cc(Br)cc2C)C(=O)NC12CCN(OC)CC2 [Compound P48] | 100% | 80% | 80% | 90% | 80% | 10% | 80% | 80% | 207 to 211 °C |  |  |  | 
CCOC(=O)OC1=C(c2c(C)cc(Br)cc2C)C(=O)NC12CCN(OC)CC2 [Compound P49] | 80% | 80% | 70% | 80% | 90% | 80% | 80% | 80% | 185 to 187 °C |  |  |  | 
CON1CCC2(CC1)NC(=O)C(c1cc(C3CC3)c(C)cc1C)=C2OC(=O)C(C)(C)C [Compound P56] |  |  |  |  |  |  |  |  | 218 to 219 °C | 20% | 40% | 50% | 60%
CCOC(=O)OC1=C(c2ccc(Br)cc2C)C(=O)NC12CCN(OC)CC2 [Compound P68] |  |  |  |  |  |  |  |  | 201 to 203 °C | 70% | 60% | 90% | 90%
CON1CCC2(CC1)NC(=O)C(c1c(C)cc(-c3ccc(Cl)cc3)cc1C)=C2OC(=O)C(C)(C)C [Compound P71] |  |  |  |  |  |  |  |  | > 250 °C | 0% | 20% | 30% | 60%
CON1CCC2(CC1)NC(=O)C(c1c(C)cc(C)cc1C)C2=O (centres unmarked) [Compound T4] | 90% | 100% | 100% | 90% | 100% | 90% | 100% | 100% |  |  |  |  | 
CCON1CCC2(CC1)NC(=O)C(c1c(C)cc(C)cc1C)C2=O (centres unmarked) [Compound T5] | 100% | 90% | 100% | 90% | 90% | 60% | 100% | 90% |  |  |  |  | 
CON1CCC2(CC1)NC(=O)C(c1cc(-c3ccc(Cl)cc3)c(C)cc1C)C2=O (centres unmarked) [Compound T15] |  |  |  |  |  |  |  |  | 168 to 169 °C | 60% | 60% | 90% | 90%
CON1CCC2(CC1)NC(=O)C(c1ccc(Br)cc1Cl)C2=O (centres unmarked) [Compound T21] |  |  |  |  |  |  |  |  | 167 to 169 °C | 80% | 60% | 90% | 80%
CON1CCC2(CC1)NC(=O)C(c1ccc(Br)cc1C)C2=O (centres unmarked) [Compound T22] |  |  |  |  |  |  |  |  | 187 to 189 °C | 60% | 40% | 80% | 80%
